Test results reported in US9726659B2, “CMPF as a biomarker for diabetes and associated methods” (The Governing Council of the University of Toronto, priority 2012, dated 2017).

Legend:
[1] = tested on: MIN6 cells; test: Annexin V and propidium iodide staining for apoptosis and necrosis; format: cell-based, murine; conditions: 20 uM or 200 uM, 4 hrs
Protocol: A) MIN6 cells were treated for 4 hrs with 0 uM (EtOH vehicle control), 20 uM or 200 uM CMPF prior to being loaded with Annexin V and propidium iodide fluorescent dyes, and counterstained with Hoechst dye. […] B) Primary CD1 islets were dispersed and treated with vehicle control (0 CMPF, black), 20 uM CMPF (grey), or 200 uM CMPF (white) for 48 hours, then stained with Annexin V, Propidium Iodide and Hoechst dye. Quantification of double positive staining was assessed by an Arrayscan VTI HCS reader.
Next the mechanism underlying the observed impairment in GSIS following treatment with CMPF was investigated. To determine whether CMPF was inhibiting GSIS by inducing beta cell apoptosis, Annexin V and Propidium Iodide staining was performed in MIN6 cells treated with vehicle (EtOH), 20 uM or 200 uM CMPF for 4 hrs to look for apoptosis and necrosis respectively. […] MIN6 cells treated with 5 mM H2O2 for 3 hrs were used as a positive control (FIG. 4).

[2] = tested on: CD1 mice; test: IP injection for 3 or 7 days: monitoring, fasting values, OGTT, ipITT; format: in vivo; conditions: for fasting blood glucose / fasting plasma insulin / glucose tolerance (OGTT) / insulin secretion during OGTT: 14 hr fast
Protocol: CD1 mice were injected IP with either vehicle control (black) or CMPF (white). A) Plasma samples were taken at 10, 30, 60, 120 and 360 minutes post-IP injection and assayed for CMPF. […] Over the 3-day course of IP injections, mice were monitored for body weight (B), random-fed blood glucose (C) and plasma insulin (C). There was no difference in any of these parameters. Following 3 consecutive days of CMPF injections, mice were fasted for 14 hrs and OGTTs were performed.
(§1) CD1 mice were injected IP with either vehicle control (black) or CMPF (white). Over the 7-day course of IP injections, mice were monitored for body weight (A), and random-fed blood glucose (B) and plasma insulin (C). […] The lower body weights on day 8 are following a 14-hour fast, immediately prior to the OGTTs. Following 7 consecutive days of CMPF injections, mice were fasted for 14 hrs and OGTTs were performed. […] (n=8 per group, p<0.05).
To investigate the effect of CMPF on glucose homeostasis, (FIG. 8C). […] Therefore, elevated plasma CMPF concentrations cause impaired beta cell function and prevent GSIS in vivo, resulting in glucose intolerance. Chronically elevated CMPF levels may also induce insulin resistance. […]

[3] = tested on: islets from injected mice; test: Islets isolated from IP injected mice after the OGTT (ex vivo); format: in vivo
Protocol: as §1
To assess the effect of in vivo administration of CMPF directly on the beta cells, the islets were isolated from the 3-day and 7-day IP injected mice immediately following the OGTT. […] The reduced total insulin content corresponded to lower insulin mRNA levels (FIG. 7D, 3-day injected used as representative), consistent with the in vitro studies described herein.

[4] = tested on: dispersed mouse islets; test: Mitochondrial membrane potential (rhodamine 123); format: cell-based; conditions: 200 μM
Protocol: Dispersed isolated islets were treated with either vehicle control or 200 μM CMPF for 24 hours prior to loading with rhodamine 123 (25 ug/ml, 10 min) in 2.8 mM glucose imaging buffer. 5 mM NaN3 was added to fully depolarize the MMP (Diao et al., 2008).
Lower total insulin content may be due to beta-cell exhaustion caused by over-stimulation and/or defective insulin production. To determine the mechanism through which CMPF diminishes insulin content, we measured insulin in the media following 24 hr treatment. […] Impaired insulin processing has previously been associated with elevated levels of the mitochondrial protein uncoupling protein 2 (UCP2) (Kashemsant and Chan, 2006). Excess substrate for the electron transport chain leads to the formation of ROS, which can induce UCP2 expression. To first determine if CMPF is metabolized by beta-cells, we measured changes in mitochondrial membrane potential (MMP) in mouse islets acutely treated with CMPF. […] This corresponded to a 2-fold increase in ROS in CMPF-treated islets over controls after 4 and 24 hrs of treatment (FIG. 17c). […] The increase in ROS production caused by CMPF-treatment was inhibited by co-treatment with the antioxidant N-Acetyl-Cysteine (NAC) (FIG. 17f). Importantly, co-treatment with NAC rescued insulin secretion and insulin content to near control levels in CMPF-treated islets (FIG. 17g,h). Therefore, oxidative stress caused by CMPF metabolism impaired GSIS and insulin processing, and is reversible through reducing ROS generation.
Given that CMPF causes hyperinsulinemia during the fed-state in vivo, and exaggerated secretion of insulin from islets under non-stimulatory conditions in vitro, we rationalized that there must be a defect in glucose-sensing and/or secretion of insulin that could not be solely explained by effects on insulin production. […] To confirm changes in mitochondrial function, 24 hr CMPF treated islets were analyzed by microarray. […] When organized based on biological process, the largest differentially expressed cluster encompassed genes involved in metabolism (38%) (FIG. 17c). […]

[5] = after seven days of IP injection
[6] = after three days of IP injection

islet size ([3]; 3 days IP): no significant difference
SMILES: CCCc1oc(CCC(=O)O)c(C(=O)O)c1C [CMPF, 3-carboxy-4-methyl-5-propyl-2-furanpropanoic acid]
Annexin V and propidium iodide staining (apoptosis, necrosis) [1]: No significant staining | body weight ([2]; 3-day course of IP injections): no difference | random-fed blood glucose ([2]; 3-day course of IP injections): no difference | random-fed plasma insulin ([2]; 3-day course of IP injections): no difference | body weight ([2]; 7-day course of IP injections): no difference | random-fed blood glucose ([2]; 7-day course of IP injections): no difference | fasting blood glucose [2, 5]: significantly higher | fasting plasma insulin [2, 5]: significantly higher | fasting blood glucose [2, 6]: significantly higher | fasting plasma insulin [2, 6]: significantly lower | glucose tolerance (OGTT) ([2]; after 3 days of IP injection): impaired glucose tolerance | insulin secretion during OGTT ([2]; after 3 days of IP injection): significantly impaired insulin secretion | glucose tolerance (OGTT) ([2]; after 7 days of IP injection): significantly impaired glucose tolerance | insulin secretion during OGTT ([2]; after 7 days of IP injection): significantly impaired insulin secretion | random-fed plasma insulin ([2]; days 4-7 of injections): significantly elevated | fed-state glucagon ([2]; seven-day treatment): hyperglucagonemia | insulin sensitivity by insulin-tolerance testing (ipITT) ([2]; seven-day treatment, vs vehicle): no significant difference | GSIS of isolated islets ([3]; 3 days IP): impaired GSIS | insulin mRNA of isolated islets ([3]; 3 days IP): decreased insulin mRNA | total insulin content of isolated islets ([3]; 3 days IP): decreased total insulin content | insulin secretion of isolated islets under high glucose ([3]; 7 days IP): significantly reduced insulin secretion | insulin secretion of isolated islets under low glucose ([3]; 7 days IP): significantly increased insulin secretion | MMP hyperpolarization under high glucose ([4]; 24 hrs): significantly reduced MMP hyperpolarization | MMP hyperpolarization under sub-stimulatory glucose ([4]; 24 hrs): significantly greater hyperpolarization | mitochondrial membrane potential, acute addition ([4]; acute): transient membrane hyperpolarization
